Read-outs that look alike come from different tables or passages of the source.
Assays:
Test in all cases: cells
Parameters in all cases: species or system AML cell lines (8); Secondary HTS, 10-point dose-response in triplicate, Cell Titer Glo viability, four-parameter fit EC50
U937 = settings: Homo sapiens, read-out: U937
M07e = settings: M-07e, read-out: M07e
MOLM-13 = settings: Homo sapiens, read-out: MOLM-13
MV4-11 = settings: Homo sapiens, read-out: MV4-11
CMK = settings: Homo sapiens, read-out: CMK
CHRF288-11 = settings: read-out: CHRF288-11
ML-2 = settings: Homo sapiens, read-out: ML-2
CMS = settings: read-out: CMS

SMILES | EC50 (U937; U-937, 72 h) [µM] | EC50 (M07e; 72 h) [µM] | EC50 (MOLM-13; MOLM-13, 72 h) [µM] | EC50 (MV4-11; MV4-11, 72 h) [µM] | EC50 (CMK; CMK, 72 h) [µM] | EC50 (CHRF288-11; 72 h) [µM] | EC50 (ML-2; ML-2, 72 h) [µM] | EC50 (CMS; 72 h) [µM] | EC50 (U937; U-937, 72 h cell viability) [µM] | EC50 (M07e; 72 h cell viability) [µM] | EC50 (MOLM-13; 72 h cell viability) [µM] | EC50 (MV4-11; 72 h cell viability) [µM] | EC50 (CMK; 72 h cell viability) [µM] | EC50 (CHRF288-11; 72 h cell viability) [µM] | EC50 (ML-2; 72 h cell viability) [µM] | EC50 (CMS; 72 h cell viability) [µM]
N[C@@H]1CCCN(c2c(/C=C3\SC(=O)NC3=O)cccc2-c2ccccc2)C1 [SJ000833889, AZD1208] | > 10 | > 10 | > 10 | > 10 | > 10 | > 10 | > 10 | > 10 | – | – | – | – | – | – | – | –
O=c1cc(N2CCOCC2)oc2c(-c3cccc4c3sc3ccccc34)cccc12 [SJ000834137, NU 7441] | > 10 | 0.3 | > 10 | > 10 | > 10 | > 10 | > 10 | > 10 | – | – | – | – | – | – | – | –
O=C(Nc1ncc([N+](=O)[O-])s1)c1ccc([N+](=O)[O-])c(Cl)c1 [SJ000834139, SM-7368] | – | – | – | – | – | – | – | – | 6.8 | > 10 | > 10 | > 10 | > 10 | > 10 | > 10 | > 10
CCOC(=O)C1=C(C)NC2=C(C(=O)CC(C)(C)C2)C1c1ccc(-c2ccccc2)cc1 (stereo not shown) [SJ000834140, ITD-1] | > 10 | > 10 | > 10 | > 10 | > 10 | > 10 | > 10 | > 10 | – | – | – | – | – | – | – | –
CCN1CCN(CC(=O)Nc2ccc(-c3cccc4c(=O)cc(N5CCOCC5)oc34)c3sc4ccccc4c23)CC1 [SJ000834141, KU-0060648] | 3 | 4 | 0.47 | > 10 | 0.27 | 0.78 | 0.43 | 2.8 | – | – | – | – | – | – | – | –
Cc1ccc(NCCCc2ccccc2)c(N)c1 [SJ000834143, JSH-23] | > 10 | > 10 | > 10 | > 10 | 8.7 | > 10 | > 10 | > 10 | – | – | – | – | – | – | – | –
O=C(Nc1cc(Cl)cc2c1[nH]c1cnccc12)c1cccnc1 [SJ000834145, PS-1145] | > 10 | > 10 | > 10 | > 10 | > 10 | > 10 | > 10 | > 10 | – | – | – | – | – | – | – | –
c1ccc2c(-c3cnn4cc(-c5ccc(N6CCNCC6)cc5)cnc34)ccnc2c1 [SJ000834146, LDN-193189] | 0.19 | 0.62 | 0.19 | 0.19 | 1.1 | 0.36 | 0.18 | 0.53 | – | – | – | – | – | – | – | –
CC(C)c1cccc(C(C)C)c1N1C(=O)c2ccc(O)cc2C1=O [SJ000834149, 5HPP-33] | 6.7 | > 10 | > 10 | > 10 | > 10 | > 10 | 5.7 | 8.4 | – | – | – | – | – | – | – | –
c1ccc(-c2nn3c(c2-c2ccnc4cc(OCCN5CCOCC5)ccc24)CCC3)nc1 [SJ000834150, LY2109761] | > 10 | > 10 | > 10 | > 10 | > 10 | > 10 | > 10 | > 10 | – | – | – | – | – | – | – | –
COc1ccc([C@@]23Oc4cc(OC)cc(OC)c4[C@]2(O)[C@H](O)[C@H](C(=O)N(C)C)[C@H]3c2ccccc2)cc1 [SJ000834151, ROCAGLAMIDE A] | 0.053 | 0.031 | 0.018 | > 10 | 0.021 | 0.014 | 0.044 | 0.017 | – | – | – | – | – | – | – | –
CN1CCN(c2cc(C(=O)Nc3ccc4c(c3)-c3c(c(C(N)=O)nn3-c3ccc(F)cc3)CC4)c(Cl)cn2)CC1 [SJ000834153, PHA 408] | 9.2 | 5.2 | > 10 | > 10 | > 10 | > 10 | > 10 | > 10 | – | – | – | – | – | – | – | –
Nc1nc(NC2CC2)cc(-c2cccc(Cl)c2Cl)n1 [SJ000834160, TH588] | 3 | > 10 | > 10 | > 10 | 4.8 | > 10 | 10 | > 10 | – | – | – | – | – | – | – | –
O=c1cc(N2CCOCC2)oc2c1ccc1ccccc12 [SJ000834163, NU 7026] | > 10 | > 10 | > 10 | > 10 | > 10 | > 10 | > 10 | > 10 | – | – | – | – | – | – | – | –
Cc1ccc(S(=O)(=O)/C=C/C#N)cc1 [SJ000834165, BAY 11-7082] | 0.5 | 3.3 | 1.3 | 1.8 | 4.5 | 1.8 | 0.68 | 3.6 | – | – | – | – | – | – | – | –
COc1cc(C(=O)NC2CCN(C)CC2)c(F)cc1Nc1ncc2c(n1)N(C1CCCC1)CC(F)(F)C(=O)N2C [TAK-960] | > 10 | > 10 | > 10 | > 10 | > 10 | > 10 | > 10 | > 10 | – | – | – | – | – | – | – | –
CC1(C)CCC(C)(C)c2cc(NC(=O)c3ccc(C(=O)O)cc3)ccc21 [TAMIBAROTENE] | > 10 | > 10 | > 10 | > 10 | > 10 | > 10 | > 10 | > 10 | – | – | – | – | – | – | – | –
CCOC(=O)c1ccc(C#Cc2ccc3c(c2)C(C)(C)CCS3)nc1 [TAZAROTENE] | > 10 | > 10 | > 10 | > 10 | > 10 | > 10 | > 10 | > 10 | – | – | – | – | – | – | – | –
Cn1nnc2c(C(N)=O)ncn2c1=O [TEMOZOLOMIDE] | > 10 | > 10 | > 10 | > 10 | > 10 | > 10 | > 10 | > 10 | – | – | – | – | – | – | – | –
CO[C@H]1C[C@@H]2CC[C@@H](C)[C@@](O)(O2)C(=O)C(=O)N2CCCC[C@H]2C(=O)O[C@H]([C@H](C)C[C@@H]2CC[C@@H](OC(=O)C(C)(CO)CO)[C@H](OC)C2)CC(=O)[C@H](C)/C=C(\C)[C@@H](O)[C@@H](OC)C(=O)[C@H](C)C[C@H](C)/C=C/C=C/C=C/1C [TEMSIROLIMUS] | > 10 | > 10 | > 10 | > 10 | > 10 | > 10 | > 10 | > 10 | – | – | – | – | – | – | – | –
CC1=C(/C=C/C(C)=C/C=C/C(C)=C/C(=O)O)C(C)(C)CCC1 [TRETINOIN] | > 10 | > 10 | > 10 | > 10 | > 10 | > 10 | > 10 | > 10 | – | – | – | – | – | – | – | –
C[C@]1(c2nc3c(C(N)=O)cccc3[nH]2)CCCN1 [VELIPARIB] | > 10 | > 10 | > 10 | > 10 | > 10 | > 10 | > 10 | > 10 | – | – | – | – | – | – | – | –
CCCS(=O)(=O)Nc1ccc(F)c(C(=O)c2c[nH]c3ncc(-c4ccc(Cl)cc4)cc23)c1F [VEMURAFENIB] | > 10 | > 10 | > 10 | > 10 | > 10 | > 10 | > 10 | > 10 | – | – | – | – | – | – | – | –
CS(=O)(=O)c1ccc(C(=O)Nc2ccc(Cl)c(-c3ccccn3)c2)c(Cl)c1 [VISMODEGIB] | > 10 | > 10 | > 10 | > 10 | > 10 | > 10 | > 10 | > 10 | – | – | – | – | – | – | – | –
COc1ccc(Cl)c(Nc2nc3ccccc3nc2NS(=O)(=O)c2cccc(NC(=O)C(C)(C)N)c2)c1 [XL147] | > 10 | > 10 | > 10 | > 10 | > 10 | > 10 | > 10 | > 10 | – | – | – | – | – | – | – | –
FC(F)c1nc2ccccc2n1-c1nc(N2CCOCC2)nc(N2CCOCC2)n1 [ZSTK-474] | > 10 | > 10 | > 10 | > 10 | > 10 | > 10 | > 10 | > 10 | – | – | – | – | – | – | – | –

Source: PMC6522510 (Nature Communications, 2019)
